Source: US12102638B2 (Urovant Sciences GmbH, priority 2017, dated 2024)
Read-outs that look alike come from different tables or passages of the source.

Key:
healthy subjects = assay: maximum MA4 heart rate in multiple-dose Phase 1 study; type: in vivo, human; conditions: Day 14
Experimental: More intensive assessments of heart rate and blood pressure were performed in healthy volunteers in several Phase 1 studies. […] Doses ranged from 25 to 400 mg once daily for 7 to 28 days depending on the cohort. Least squares mean and 90% confidence intervals of maximum change from baseline in moving average of heart rate over 4 hours postdose (MA4 HR) are presented in Table 17.

[1] = drug interaction study of vibegron 75 mg and rifampin; conditions: for CL/F, geometric mean / V/F, geometric mean: single 75 mg
[2] = drug interaction studies: effect of co-administered medication on vibegron PK; type: in vivo, human
Description: However, these interactions are not expected to be clinically significant.

[3] = in vivo
[4] = single-dose PK in patients with moderate hepatic impairment; type: in vivo, human; conditions: single 100 mg
[5] = system: patients with overactive bladder
Description: A placebo group was included in the main study, and a group that received tolterodine monotherapy was included in the main study and in the extension.

men and women with OAB = assay: Phase 2b study in OAB, efficacy (voiding diary); type: in vivo, human
Description: Part 2 was designed to continue to assess the safety and efficacy of concomitant dosing. […] Subjects in both Part 1 and Part 2 had the option of enrolling in a 1-year extension. Participants were required to keep a voiding diary, recording the occurrence of each strong urge, total incontinence, and urge incontinence episode. Efficacy data for Part 1 and Part 2 are summarized herein.
The total number of urgency incontinence episodes must have exceeded the total number of stress incontinence episodes for all subjects.

human plasma proteins = assay: plasma protein binding; type: in vitro ADME
[6] = effect of food on oral absorption (single and multiple dose); type: in vivo, human; conditions: for mean AUC0-24 with food compared to fasted state / mean Cmax with food compared to fasted state: 150 mg multiple oral doses, middle-aged and elderly females
[7] = multiple doses of 240 mg or 180 mg diltiazem
[8] = vibegron 3 mg once daily, OAB Wet subjects
[9] = vibegron 3 mg once daily, Part 1
[10] = vibegron 15 mg once daily, OAB Wet subjects
[11] = vibegron 15 mg once daily, Part 1
[12] = vibegron 50 mg once daily, OAB Wet subjects
[13] = vibegron 50 mg once daily, Part 1
[14] = vibegron 100 mg once daily, OAB Wet subjects
[15] = 150 mg multiple doses, middle-aged females, Day 14
[16] = single 50 mg, Japanese young males
[17] = single 50 mg, non-Japanese young males

SMILES: O=C(Nc1ccc(C[C@@H]2CC[C@H]([C@H](O)c3ccccc3)N2)cc1)[C@@H]1CCc2nccc(=O)n21 [vibegron, (6S)—N-[4-[[(2S,5R)-5-[(R)-hydroxy(phenyl)methyl]pyrrolidin-2-yl]methyl]phenyl]-4-oxo-7,8-dihydro-6H-pyrrolo[1,2-a]pyrimidine-6-carboxamide]
- Maximum MA4 HR change from baseline, LS mean (healthy subjects; 25 mg once daily): 1.47 bpm
- Maximum MA4 HR, Difference from Placebo (healthy subjects; 25 mg once daily): −1.60 bpm
- Maximum MA4 HR change from baseline, LS mean (healthy subjects; 50 mg once daily): 1.50 bpm
- Maximum MA4 HR, Difference from Placebo (healthy subjects; 50 mg once daily): −1.57 bpm
- Maximum MA4 HR change from baseline, LS mean (healthy subjects; 100 mg once daily): 3.28 bpm
- Maximum MA4 HR change from baseline, LS mean (healthy subjects; 150 mg once daily): 3.17 bpm
- Maximum MA4 HR, Difference from Placebo (healthy subjects; 150 mg once daily): 0.10 bpm
- Maximum MA4 HR change from baseline, LS mean (healthy subjects; 200 mg once daily): 5.67 bpm
- Maximum MA4 HR, Difference from Placebo (healthy subjects; 200 mg once daily): 2.60 bpm
- Maximum MA4 HR change from baseline, LS mean (healthy subjects; 300 mg once daily): 9.06 bpm
- Maximum MA4 HR, Difference from Placebo (healthy subjects; 300 mg once daily): 5.98 bpm
- Maximum MA4 HR change from baseline, LS mean (healthy subjects; 400 mg once daily): 10.33 bpm
- Maximum MA4 HR, Difference from Placebo (healthy subjects; 400 mg once daily): 7.26 bpm
- tolerability of vibegron and rifampin ([1]; healthy male and female subjects): well tolerated
- CL/F, geometric mean ([1]; Vibegron + Rifampin 600 mg QD): 57.3 L/h
- V/F, geometric mean ([1]; Vibegron + Rifampin 600 mg QD): 6140 L
- CL/F, geometric mean ([1]; Vibegron alone): 57.2 L/h
- V/F, geometric mean ([1]; Vibegron alone): 6930 L
- subjects with an AE related to study drug ([1]; vibegron 75 mg and rifampin 600 mg QD): 15%
- effect of Tolterodine ER 4 mg on the pharmacokinetics of vibegron ([2]; in vivo): no effect
- GM vibegron AUC0-inf increase [2, 7]: 63%
- GM vibegron Cmax increase [2, 7]: 68%
- severe TEAEs, SAEs or deaths [3]: no severe TEAEs, SAEs or deaths
- CL/F, geometric mean ([4]; Healthy Matched Control Subjects): 68.3 L/h
- CL/F, geometric mean ([4]; Moderate Hepatic Impairment): 56.0 L/h
- Accidental overdose, % ([5]; Vibegron 3 mg, N = 144, first 12 weeks): (2.1) %
- Accidental overdose, % ([5]; Vibegron 15 mg, N = 134, first 12 weeks): (4.5) %
- Accidental overdose, % ([5]; Vibegron 50 mg, N = 148, first 12 weeks): (2.7) %
- Accidental overdose, % ([5]; Vibegron 100 mg, N = 261, first 12 weeks): (4.2) %
- frequency of injuries ([5]; human, in vivo): 0.9%
- dose-response relationship (men and women with OAB; between 50 and 100 mg once daily): relatively shallow dose-response relationship
- Total Incontinence Episodes, difference from placebo Week 8, LS means (men and women with OAB; [8]): −0.18
- Urgency Incontinence Episodes, difference from placebo Week 8, LS means (men and women with OAB; [8]): −0.28
- Micturitions, difference from placebo Week 8, LS means (men and women with OAB; [9]): −0.46
- Urgency Episodes, difference from placebo Week 8, LS means (men and women with OAB; [9]): −0.18
- Total Incontinence Episodes, difference from placebo Week 8, LS means (men and women with OAB; [10]): −0.48
- Urgency Incontinence Episodes, daily number, Week 8 mean (men and women with OAB; [10]): 1.12
- Urgency Incontinence Episodes, difference from placebo Week 8, LS means (men and women with OAB; [10]): −0.57
- Micturitions, difference from placebo Week 8, LS means (men and women with OAB; [11]): −0.45
- Urgency Episodes, difference from placebo Week 8, LS means (men and women with OAB; [11]): −0.67
- Total Incontinence Episodes, difference from placebo Week 8, LS means (men and women with OAB; [12]): −0.60
- Urgency Incontinence Episodes, difference from placebo Week 8, LS means (men and women with OAB; [12]): −0.72
- Micturitions, difference from placebo Week 8, LS means (men and women with OAB; [13]): −0.64
- Urgency Episodes, difference from placebo Week 8, LS means (men and women with OAB; [13]): −0.76
- average number of daily micturitions compared to placebo at Week 8 (men and women with OAB; vibegron 100 mg and 50 mg treatment groups, Part 1): statistically significant decreases
- Total Incontinence Episodes, daily number, Week 8 mean (men and women with OAB; [14]): 1.12
- Total Incontinence Episodes, difference from placebo Week 8, LS means (men and women with OAB; [14]): −0.58
- Urgency Incontinence Episodes, difference from placebo Week 8, LS means (men and women with OAB; [14]): −0.71
- Micturitions, difference from placebo Week 8, LS means (men and women with OAB; vibegron 100 mg once daily, Part 1): −0.91
- Micturitions, difference in LS means 100 mg − 50 mg (men and women with OAB; week 8): −0.27
- Total incontinence, difference in LS means 100 mg − 50 mg (men and women with OAB; week 8): 0.02
- Urgency Episodes, difference in LS means 100 mg − 50 mg (men and women with OAB; week 8): −0.48
- Urgency incontinence, difference in LS means 100 mg − 50 mg (men and women with OAB; week 8): 0.01
- bound to human plasma proteins (human plasma proteins): approximately 49%
- unbound in plasma (human plasma proteins): 49%
- reduction in mean AUC0-24hr with food vs fasted [6, 15]: 20%
- reduction in mean Cmax with food vs fasted [6, 15]: 47%
- mean AUC0-24 with food compared to fasted state ([6]; Day 1): ~42%
- mean Cmax with food compared to fasted state ([6]; Day 1): 59%
- mean AUC0-24 with food compared to fasted state ([6]; Day 14): ~20%
- mean Cmax with food compared to fasted state ([6]; Day 14): 43%
- Ctrough ([6]; multiple dose 150 mg, day 14, Non-Japanese middle-aged females, Fasted): 62.7 ± 12.4 ng/mL
- reduction in AUC0-inf with standard Japanese breakfast [6, 16]: 37%
- reduction in Cmax with standard Japanese breakfast [6, 16]: 52%
- delay in Tmax with high-fat meal vs fasted [6, 17]: ~1 h
- reduction in AUC0-inf with high-fat meal vs fasted [6, 17]: 46%
- reduction in Cmax with high-fat meal vs fasted [6, 17]: 67%
